We go through 13 compounds from patent US5658897A, “Cyclopentane(ene) heptanoic or cyclopentane(ene) heptenoic acid, 2-hydrocarbyl phosphinyloxyalkyl or phosphonamidoalkyl as therapeutic agents” (Allergan, priority 1996, dated 1997).

Entries after “also recorded” stand apart in the source; their conditions may differ. Where two headings read alike, the source gives them in different places.

The test system of data set [1] is intraocular pressure in the dog. Nature of the data set: Dog intraocular pressure by applanation pneumatonometry. The class given is in vivo. Conditions: 0.1%, 25 μl to ocular surface. The procedure:
The effects of certain of the compounds of the working examples on intraocular pressure are also measured. The compounds of Examples 3 and 7 are prepared at 0.1% w/v concentration in a vehicle comprising 0.1% polysorbate 80 and 10 mM tris (hydroxy methyl) aminomethane hydrochloride (TRIS) base. Dogs are treated by administering 25 μl to the ocular surface, while the contralateral eye receives vehicle as a control. Intraocular pressure is measured by applanation pneumatonometry. Dog intraocular pressure is measured immediately before drug administration and at 2, 4, 6 and 24 hours thereafter. Each of the compounds tested lower intraocular pressure in the dog model.

A further data set has as its system ocular surface. As to conditions: cited from earlier work.
Another data set concerns DP/EP2. As to the kind of experiment: DP/EP2 activity in isolated smooth muscle preparations. Conditions: read-out: EC50 (nM) DP/EP2.
In a further data set the target is T1, TP (Rattus norvegicus, UniProt P34978).
T1 sequence (P34978 1-341): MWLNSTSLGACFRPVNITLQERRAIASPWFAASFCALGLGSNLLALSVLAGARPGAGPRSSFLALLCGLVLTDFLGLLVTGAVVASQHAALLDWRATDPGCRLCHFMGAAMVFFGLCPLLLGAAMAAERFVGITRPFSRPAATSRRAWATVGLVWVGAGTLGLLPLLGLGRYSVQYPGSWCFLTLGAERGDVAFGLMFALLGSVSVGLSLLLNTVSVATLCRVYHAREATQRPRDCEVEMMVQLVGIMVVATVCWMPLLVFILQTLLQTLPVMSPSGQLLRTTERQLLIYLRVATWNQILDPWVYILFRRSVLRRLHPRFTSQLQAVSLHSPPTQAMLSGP

The subject of the next data set is EP3. As to the kind of experiment: EP3 activity in isolated smooth muscle preparations. As to conditions: read-out: EC50 (nM) EP3.
A further data set has as its system EP1. As to the kind of experiment: EP1 activity in isolated smooth muscle preparations. As to conditions: read-out: EC50 (nM) EP1.
The next data set addresses FP receptor (Felis catus, UniProt A0ABI7XJ69). As to the kind of experiment: FP activity, contraction of the isolated feline iris sphincter. As to conditions: read-out: EC50 (nM) FP.
The next data set has as its target EP4 (Oryctolagus cuniculus, UniProt Q28691). Conditions: for IC25: read-out: IC25 EP4.
The conditions of data set [2]: cited from earlier work; for ocular hypotensive activity: in vivo.

Sequence of FP receptor (A0ABI7XJ69 1-366): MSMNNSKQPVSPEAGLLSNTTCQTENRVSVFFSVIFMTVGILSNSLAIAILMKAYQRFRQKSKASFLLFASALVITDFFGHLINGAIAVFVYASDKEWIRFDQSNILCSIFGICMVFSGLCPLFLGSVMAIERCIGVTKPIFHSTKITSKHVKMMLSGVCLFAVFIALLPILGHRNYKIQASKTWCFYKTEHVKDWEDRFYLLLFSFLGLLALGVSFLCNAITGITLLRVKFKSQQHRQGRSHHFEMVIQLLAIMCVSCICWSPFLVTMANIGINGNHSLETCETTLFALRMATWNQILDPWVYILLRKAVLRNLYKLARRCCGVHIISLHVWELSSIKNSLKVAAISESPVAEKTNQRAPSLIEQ
Sequence of EP4 (Q28691 whole entry): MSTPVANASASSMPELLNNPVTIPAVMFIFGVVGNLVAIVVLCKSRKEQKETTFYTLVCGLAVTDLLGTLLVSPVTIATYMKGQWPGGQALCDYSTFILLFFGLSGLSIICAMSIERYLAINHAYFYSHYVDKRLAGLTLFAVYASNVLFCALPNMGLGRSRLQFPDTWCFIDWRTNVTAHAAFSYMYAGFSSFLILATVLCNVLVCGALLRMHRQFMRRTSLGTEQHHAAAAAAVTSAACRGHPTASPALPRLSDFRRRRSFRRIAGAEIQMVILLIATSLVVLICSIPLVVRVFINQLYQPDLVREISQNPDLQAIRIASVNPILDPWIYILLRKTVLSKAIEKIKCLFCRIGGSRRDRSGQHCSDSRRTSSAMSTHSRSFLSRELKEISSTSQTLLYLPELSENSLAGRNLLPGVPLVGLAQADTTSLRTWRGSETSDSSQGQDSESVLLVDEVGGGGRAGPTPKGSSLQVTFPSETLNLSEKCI
Experimental for DP/EP2: (§1) Activity at different prostanoid receptors was measured in vitro in isolated smooth muscle preparations. FP-activity was measured as contraction of the isolated feline iris sphincter. EP4 -activity was measured as relaxation of smooth muscle of isolated rabbit jugular vein. TP-vasoconstrictor activity was measured as contraction of rings of the isolated rat thoracic aorta.
Experimental for EP1: Activity at different prostanoid receptors was measured in vitro in isolated smooth muscle preparations.
Experimental for EP3: as §1
Experimental for EP4: as §1
Experimental for FP receptor: as §1
Experimental for TP: as §1

Consider `COP(=O)(CCc1ccccc1)OC[C@@H]1[C@@H](C/C=C\CCCC(=O)O)[C@@H](O)C[C@H]1O` (stereo partly drawn) [Example 3, 7-[3α,5α-Dihydroxy-2-β-[[methoxy(2-phenylethyl)phosphinyl]oxymethyl]cyclopentyl]-5Z-heptenoic acid], for which, in data set [1], the “Decrease in IOP (mm Hg) at 2 HR” value was -1.1 mm Hg, the “Decrease in IOP (mm Hg) at 4 HR” value is recorded as -2.9 mm Hg, the “Decrease in IOP (mm Hg) at 6 HR” value is recorded as -3.5 mm Hg and the “Decrease in IOP (mm Hg) at 24 HR” value was determined as 0.4 mm Hg.

Regarding `CCCCC[C@H](O)/C=C/[C@@H]1[C@@H](C/C=C\CCCC(=O)O)[C@@H](O)C[C@H]1O` [PGF2α], the “ocular surface side effects” value with ocular surface (in vivo) is “ocular surface (conjunctival) hyperemia and foreign-body sensation”.

In the case of `COP(=O)(CCc1ccccc1)OC[C@@H]1[C@@H](C/C=C\CCCC(=O)O)[C@@H](O)C[C@H]1O` (some centres unmarked) [drawing 10], the EC50 in the data set with DP/EP2 is greater than 10000 nM; on TP, greater than 10 µM; with EP3, 575 nM; in the data set with EP1, 10000 nM; at FP receptor, 195 nM.

Consider `COC(=O)CCC/C=C\C[C@@H]1[C@@H](COP(=O)(O)CCc2ccccc2)[C@H](O)C[C@@H]1O`, for which the EC50 with DP/EP2, in the data set on EP3 and at FP receptor was greater than 10000 nM in each case. Besides, on EP4, the “FP/EP4 Ratio” value is on record as greater than 27. In addition, the IC25 (as a rule, the point of the concentration-response curve where the effect stands at 25%) at EP4 stood at 0.365 µM.

Regarding `COC(=O)CCC/C=C\C[C@@H]1[C@@H](CNP(=O)(CCc2ccccc2)OC)[C@H](O)C[C@@H]1O` (some centres unmarked) [drawing 14], the EC50 was greater than 10 µM at TP, greater than 10000 nM in the data set with EP3 and 252 nM at FP receptor.

For `O=C(O)CCC/C=C\C[C@@H]1[C@@H](COP(=O)(O)CCc2ccccc2)[C@H](O)C[C@@H]1O`, the EC50 at FP receptor was greater than 10000 nM.

On to `COP(=O)(CCc1ccccc1)NC[C@@H]1[C@@H](C/C=C\CCCC(=O)O)[C@@H](O)C[C@H]1O` (some centres unmarked), for which the EC50 on FP receptor stood at 2140 nM. In addition, on EP4, the “FP/EP4 Ratio” value is listed as 2.8 and the 25% effect concentration (IC25) came out at 0.767 µM.

Turning to `CCCCC[C@H](O)/C=C/[C@@H]1[C@@H](CCCCCCC(=O)O)[C@@H](O)C[C@H]1O` [PGF1α], the ocular hypotensive activity entry in [2] is “highly effective ocular hypotensive agents”.

Turning to `CCOP(=O)(CCc1ccccc1)OC[C@@H]1[C@@H](C/C=C\CCCC(=O)O)[C@@H](O)C[C@H]1O` (some centres unmarked), the EC50 at FP receptor was greater than 10000 nM. Besides, at EP4, the “FP/EP4 Ratio” value is listed as greater than 0.15 and the IC25 worked out at 66.3 µM.

As to `CCCCC[C@H](O)/C=C/[C@@H]1[C@@H](C/C=C\CCCC(=O)OC(C)C)[C@@H](O)C[C@H]1O` [isopropyl ester of PGF2α], the “ocular surface side effects” value in the data set with ocular surface (topical ocular use, humans) is “ocular surface (conjunctival) hyperemia and foreign-body sensation”. Besides, the “hypotensive potency versus the parent compound PGF2α” value in [2] (attributed to more effective penetration through the cornea) is recorded as “significantly greater hypotensive potency than the parent compound”. For the same compound, in data set [2], the ocular hypotensive activity result was “the most potent ocular hypotensive agent ever reported”.

In the case of `COC(=O)CCC/C=C\C[C@@H]1[C@@H](CNP(=O)(CCc2ccccc2)OC)[C@H](O)C[C@@H]1O` (some centres unmarked) [Example 7], in data set [1], the “Decrease in IOP (mm Hg) at 2 HR” value was -3.3 mm Hg, the “Decrease in IOP (mm Hg) at 4 HR” value is -4.1 mm Hg, the “Decrease in IOP (mm Hg) at 6 HR” value was -5.1 mm Hg and the “Decrease in IOP (mm Hg) at 24 HR” value is listed as -3.5 mm Hg.

Turning to `CCCCC[C@@H](/C=C/[C@@H]1[C@@H](C/C=C\CCCC(=O)O)[C@@H](O)C[C@H]1OC(=O)C(C)(C)C)OC(=O)C(C)(C)C` [11,15-dipivaloyl PGF2α], the ocular hypotensive activity entry in data set [2] is on record as “known to have ocular hypotensive activity”.

Regarding `CCCCC[C@H](O)/C=C/[C@H]1[C@H](O)CC(=O)[C@@H]1C/C=C\CCCC(=O)O` [PGE2], the ocular hypotensive activity entry in data set [2] was “possess ocular hypotensive activity; also recorded: highly effective ocular hypotensive agents”.
